Data reported in PubChem BioAssay AID1963838 (Molecular Pharmacology Branch, DTP, NCI, 2024).

Tested on: 855422-203-R-J1-PDC complex spheroid viability
Assay: Anticancer human tumor 855422-203-R-J1-PDC patient-derived bladder carcinoma cell line growth inhibition [POLQ]
Conditions: for IC50: curve of first compound; for viability, T/C: stronger effect = lower value
Description: Multicellular complex tumor spheroid response to Polymerase (POL) inhibitors (novobiocin, ART-558, RP6685) in combination with a variety of drugs and investigational agents in selected tumor cell lines
The POL inhibitors (novobiocin, ART-558, and RP6685) were evaluated both individually and in combination with standard of care and investigational anticancer small molecules within a complex spheroid model of solid tumors. . Complex spheroids include a stromal component modeled by human endothelial cells (HUVEC) and fibroblasts modeled by human mesenchymal stem cells (MSCs). The concentration ranges selected for each drug and investigational agent were based upon clinically achievable concentrations if the clinical Cmax of the agent was known.
Compounds. The drugs and investigational agents: novobiocin (NSC847541), ART-558 (NSC835418), RP-6685 (NSC848927), peposertib (NSC802822), ceralasertib (NSC780249), elimusertib (NSC800525), camonsertib (NSC841442), AZD-1390 (NSC803789), olaparib (NSC753686), talazoparib (NSC767125), rucaparib (NSC756644), sotorasib (NSC818433), MRTX-1133 (NSC836407), SN-38 (NSC673596), topotecan (NSC609699), epotoside (NSC141540), doxorubicin (NSC123127), gemcitabine (NSC613327), 5-fluorouracil (NSC19893), paclitaxel (NSC125973), vemurafenib (NSC761431), MSA-2 (NSC828583), SN-011 (NSC837082), adavosertib (NSC754352), prexasertib (NSC758257), carboplatin (NSC241240) and oxaliplatin (NSC266046), were obtained from the National Cancer Institute (NCI) Developmental Therapeutics Program Chemical Repository (21). The FDA-approved anticancer drug set is available from the Developmental Therapeutics Program at https://dtp.cancer.gov/organization/dscb/obtaining/. […] The stock solutions were prepared in dimethyl sulfoxide (DMSO, Sigma-Aldrich, St. Louis, MO, cat. D2650), except for the platinum compounds which were prepared in saline (Quality Biological, Gaithersburg, MD, cat. 114-055-101), at 800-fold the tested concentration and stored at -70 degrees C prior to their use. All drugs and investigational agents were tested over a range starting from a high concentration at or near the clinical Cmax and decreasing in half-log increments. If the clinical Cmax for an agent had not been determined, the highest concentration tested was 10 microM, except for SN-38, which was tested at a high concentration of 1 microM.
Cell Culture. All cells were maintained in an incubator at 37 degrees C and 5% CO2 with 95% humidity. The PDC lines were cultured according to standard operating procedures established by the NCI PDMR (https://pdmr.cancer.gov). Table 3 of the manuscript, lists the cell lines along with the number of the three cell types plated to form the mct-spheroids and media for tumor cell growth. After thawing, all PDC lines, except 997537-175-T-J1-PDC and 415267-285-R-J2-PDC, were cultured in Matrigel-coated flasks prepared with a working solution of 1X Ham's F-12 nutrient mix, without supplementation (Thermo Fisher Scientific, cat. 11765054), 100 U/mL penicillin-streptomycin (Thermo Fisher Scientific, cat. 15140122), and 2.5% Matrigel (Corning Inc., Corning, NY, cat. 354248) for the first three passages. The two PDC lines 997537-175-T-J1-PDC and 415267-285-R-J2-PDC were cultured on uncoated flasks. The 857933-349-R-J2-PDC line was cultured in 6C/Colon 1B media containing advanced DMEM/F-12 (Thermo Fisher Scientific, cat. 12634028), 10 mM HEPES (Thermo Fisher Scientific, cat. 15630080), 1X GlutaMAX supplement (Thermo Fisher Scientific, cat. 35050061), 0.1 mg/mL primocin (InvivoGen, San Diego, CA, cat. ant-pm-2), 10% defined fetal bovine serum, heat inactivated (HyClone Laboratories Inc., Logan, UT, cat. SH30070.03HI), 50% L-WRN conditioned media (ATCC, cat. CRL-3276), 1.25 mM N-Acetyl-L-cysteine (Sigma-Aldrich, cat. A9165), 10 mM nicotinamide (Sigma-Aldrich, cat. N0636), 1X B-27 supplement (Thermo Fisher Scientific, cat. 17504044), 1X N-2 supplement (Thermo Fisher Scientific, cat. […]

[1] = second compound 0.0316 µM, first compound 0.0316 µM
[2] = second compound 0.0316 µM, first compound 0.1 µM
[3] = second compound 0.0316 µM, first compound 0.316 µM
[4] = second compound 0.0316 µM, first compound 1 µM
[5] = second compound 0.0316 µM, first compound 3.16 µM
[6] = second compound 0.0316 µM, first compound 10 µM
[7] = second compound 0.1 µM, first compound 0.0316 µM
[8] = second compound 0.1 µM, first compound 0.1 µM
[9] = second compound 0.1 µM, first compound 0.316 µM
[10] = second compound 0.1 µM, first compound 1 µM
[11] = second compound 0.1 µM, first compound 3.16 µM
[12] = second compound 0.1 µM, first compound 10 µM
[13] = second compound 0.316 µM, first compound 0.0316 µM
[14] = second compound 0.316 µM, first compound 0.1 µM
[15] = second compound 0.316 µM, first compound 0.316 µM
[16] = second compound 0.316 µM, first compound 1 µM
[17] = second compound 0.316 µM, first compound 3.16 µM
[18] = second compound 0.316 µM, first compound 10 µM
[19] = second compound 1 µM, first compound 0.0316 µM
[20] = second compound 1 µM, first compound 0.1 µM
[21] = second compound 1 µM, first compound 0.316 µM
[22] = second compound 1 µM, first compound 1 µM
[23] = second compound 1 µM, first compound 3.16 µM
[24] = second compound 1 µM, first compound 10 µM
[25] = second compound 3.16 µM, first compound 0.0316 µM
[26] = second compound 3.16 µM, first compound 0.1 µM
[27] = second compound 3.16 µM, first compound 0.316 µM
[28] = second compound 3.16 µM, first compound 1 µM
[29] = second compound 3.16 µM, first compound 3.16 µM
[30] = second compound 3.16 µM, first compound 10 µM
[31] = second compound 10 µM, first compound 0.0316 µM
[32] = second compound 10 µM, first compound 0.1 µM
[33] = second compound 10 µM, first compound 0.316 µM
[34] = second compound 10 µM, first compound 1 µM
[35] = second compound 10 µM, first compound 3.16 µM
[36] = second compound 10 µM, first compound 10 µM
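Also: spheroids exposed to compounds for seven days before readout.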

C#Cc1c(F)ccc2cc(O)cc(-c3ncc4c(N5CC6CCC(C5)N6)nc(OCC56CCCN5CC(F)C6)nc4c3F)c12 (centres undefined) + Cc1cccc(N(C)C(=O)C2C(O)CCN2c2nc(C)cc(C(F)(F)F)c2C#N)c1
IC50 (second compound 0.0316 µM): > 10 µM | IC50 (second compound 0.1 µM): > 10 µM | IC50 (second compound 0.316 µM): > 10 µM | IC50 (second compound 1 µM): > 10 µM | IC50 (second compound 3.16 µM): > 10 µM | IC50 (second compound 10 µM): > 10 µM | viability, T/C [1]: 106% | viability, T/C [2]: 105% | viability, T/C [3]: 108% | viability, T/C [4]: 101% | viability, T/C [5]: 105% | viability, T/C [6]: 103% | viability, T/C [7]: 103% | viability, T/C [8]: 103% | viability, T/C [9]: 102% | viability, T/C [10]: 96.7% | viability, T/C [11]: 103% | viability, T/C [12]: 103% | viability, T/C [13]: 106% | viability, T/C [14]: 103% | viability, T/C [15]: 99.4% | viability, T/C [16]: 97.4% | viability, T/C [17]: 114% | viability, T/C [18]: 110% | viability, T/C [19]: 109% | viability, T/C [20]: 99.7% | viability, T/C [21]: 106% | viability, T/C [22]: 96.8% | viability, T/C [23]: 111% | viability, T/C [24]: 113% | viability, T/C [25]: 101% | viability, T/C [26]: 92.3% | viability, T/C [27]: 97.5% | viability, T/C [28]: 98.3% | viability, T/C [29]: 107% | viability, T/C [30]: 112% | viability, T/C [31]: 102% | viability, T/C [32]: 107% | viability, T/C [33]: 112% | viability, T/C [34]: 94.3% | viability, T/C [35]: 102% | viability, T/C [36]: 100%

CCc1cc2c(N3CCc4c(cc(Cn5ccnc5)cc4-c4cn(C)nc4C(F)(F)F)C3=O)cc(C)nc2c(OC)n1 + Cc1cccc(N(C)C(=O)C2C(O)CCN2c2nc(C)cc(C(F)(F)F)c2C#N)c1
IC50 (second compound 0.0316 µM): 2.91 µM | IC50 (second compound 0.1 µM): 6.15 µM | IC50 (second compound 0.316 µM): 6.91 µM | IC50 (second compound 1 µM): 7.37 µM | IC50 (second compound 3.16 µM): 9.61 µM | IC50 (second compound 10 µM): 6.32 µM | viability, T/C [1]: 102% | viability, T/C [2]: 134% | viability, T/C [3]: 134% | viability, T/C [4]: 72.5% | viability, T/C [5]: 61.1% | viability, T/C [6]: 35.2% | viability, T/C [7]: 101% | viability, T/C [8]: 144% | viability, T/C [9]: 119% | viability, T/C [10]: 91.1% | viability, T/C [11]: 66.8% | viability, T/C [12]: 39.1% | viability, T/C [13]: 126% | viability, T/C [14]: 147% | viability, T/C [15]: 103% | viability, T/C [16]: 111% | viability, T/C [17]: 70.7% | viability, T/C [18]: 39.4% | viability, T/C [19]: 119% | viability, T/C [20]: 125% | viability, T/C [21]: 113% | viability, T/C [22]: 81% | viability, T/C [23]: 71.7% | viability, T/C [24]: 42.4% | viability, T/C [25]: 135% | viability, T/C [26]: 128% | viability, T/C [27]: 143% | viability, T/C [28]: 95.3% | viability, T/C [29]: 71.4% | viability, T/C [30]: 46.1% | viability, T/C [31]: 110% | viability, T/C [32]: 132% | viability, T/C [33]: 145% | viability, T/C [34]: 98.2% | viability, T/C [35]: 73.1% | viability, T/C [36]: 36.1%
